Data reported in patent US6544727B1, “Methods and devices for the removal of psoralens from blood products” (Cerus Corporation, priority 1995, dated 2003).
“And” between values parts separate entries of the source, which are not always exact repeats. Equal values may be shown once. Read-outs that look alike come from different tables or passages of the source.

Columns and labels:
[1] = test system: Salmonella tester strain TA1537; assay: Ames test, strain TA1537
Description: (§1) In this example the compounds of the present invention are tested for their dark mutagenicity using an Ames assay. The procedures used for the Salmonella mutagenicity test as described in detail by Maron and Ames were followed exactly. Maron, D. M. and B. N. Ames, Mutation Research 113: 173 ( 1983). A brief description for each procedure is given here. The tester strains TA97a, TA98, TA100, TA102, TA1537 and TA1538 were obtained from Dr. Ames. TA97a, TA98, TA1537 and TA1538 are frameshift tester strains. TA100 and TA102 are base-substitution tester strains. Upon receipt each strain was cultured under a variety of conditions to confirm the genotypes specific to the strains.
(§2) The first tests done with the strains were to determine the range of spontaneous reversion for each of the strains. With each mutagenicity experiment the spontaneous reversion of the tester strains to histidine independence was measured and expressed as the number of spontaneous revertants per plate. This served as the background controls.
For all experiments, the pre-incubation procedure was used. In this procedure one vial of each tester strain was thawed and 20 μL of this culture was added to 6 mL of Oxoid Nutrient Broth #2. This solution was allowed to shake for 10 hours at 37° C. In the pre-incubation procedure, 0.1 mL of this overnight culture was added to each of the required number of sterile test tubes. To half of the tubes 0.5 mL of a 10% S-9 solution containing Aroclor 1254 induced rat liver extract (Molecular Toxicology Inc., Annapolis, Md.), and MgCl2, KCl, glucose-6-phosphate, NADP, and sodium phosphate buffer (Sigma, St. Louis, Mo.) were added. To the other half of the tubes 0.5 mL of 0.2M sodium phospate buffer, pH 7.4, was used in place of the S-9 mixture (the—S9samples). Finally 0.1 mL of the test solution containing either 0, 0.1, 0.5, 1, 5, 10, 50, 100, 250, or 500 μg/mL of the test compound was added. The 0.7 mL mixture was vortexed and then pre-incubated while shaking for 20 minutes at 37° C. After shaking, 2 mL of molten top agar supplemented with histidine and biotin were added to the 0.7 mL mixture and immediately poured onto a minimal glucose agar plate (volume of base agar was 20 mL). The top agar was allowed 30 minutes to solidify and then the plates were inverted and incubated for 44 hours at 37° C. After incubation the number of revertant colonies on each plate were counted. […] (“n” represents the number of replicates performed for each data point.)

HIV-1 = settings: for HIV Log Kill: 1 minute irradiation
Description: As in the R17 assay, small aliquots of the compounds listed in TABLES 10 and 11, below, at the concentrations listed in the table, were added to stock HIV-1 to a total of 0.5 mL. The stock HIV (10^5−10^7 plaque forming units/mL) was in DMEM15% FBS. […] Controls included HIV-1 stock only, HIV-1 plus UVA only, and HIV-1 plus the highest concentration of each psoralen tested, with no UVA. Post irradiation, all samples were store frozen at −70° C. until assayed for infectivity by a microtiter plaque assay. Aliquots for measurement of residual HIV infectivity in the samples treated with a compound of the present invention were withdrawn and cultured.
Residual HIV infectivity was assayed using an MT-2 infectivity assay. […] The assay medium was 85% DMEM (with a high glucose concentration) containing 100 μg of streptomycin, 100 U of penicillin, 50 μg of gentamicin, and 1 μg of amphotericin B per mL, 15% FBS and 2 μg of Polybrene (Sigma Chemical Co., St. Louis, Mo.) per mL. Test and control samples from the inactivation procedure were diluted in 50% assay medium and 50% normal human pooled plasma The samples were serially diluted directly in 96-well plates (Corning Glass Works, Corning, N.Y.). The plates were mixed on an oscillatory shaker for 30 seconds and incubated at 37° C. in a 5% CO2 atmosphere for 1 to 18 hours. […] After an additional 1 hour of incubation at 37° C. in 5% CO2, 0.075 mL of assay medium containing 1.6% SeaPlaque agarose (FMC Bioproducts, Rockland, Me.) and prewarmed to 38.5° C. was added to each well. The plates were kept at 37° C. for a few minutes until several plates had accumulated and then centrifuged in plate carriers at 600×g for 20 minutes in a centrifuge precooled to 10° C. In the centrifuge, cell monolayers formed prior to gelling of the agarose layer. The plates were incubated for 5 days at 37° C. in 5% CO2 and stained by the addition of 0.05 mL of 50 μg/mL propidium iodide (Sigma Chemical Co.) in phosphate-buffered saline (pH 7.4) to each well. After 24 to 48 hours, the red fluorescence-stained microplaques were visualized by placing the plates on an 8,000 μW/cm^2304 nm UV light box (Fotodyne, Inc., New Berlin, Wis.). The plaques were counted at a magnification of x20 to x25 through a stereomicroscope.

[2] = test system: Salmonella tester strain TA98; assay: Ames test, strain TA98
Description: as §1, §2
For all experiments, the pre-incubation procedure was used. In this procedure one vial of each tester strain was thawed and 20 μL of this culture was added to 6 mL of Oxoid Nutrient Broth #2. This solution was allowed to shake for 10 hours at 37° C. In the pre-incubation procedure, 0.1 mL of this overnight culture was added to each of the required number of sterile test tubes. To half of the tubes 0.5 mL of a 10% S-9 solution containing Aroclor 1254 induced rat liver extract (Molecular Toxicology Inc., Annapolis, Md.), and MgCl2, KCl, glucose-6-phosphate, NADP, and sodium phosphate buffer (Sigma, St. Louis, Mo.) were added. To the other half of the tubes 0.5 mL of 0.2M sodium phospate buffer, pH 7.4, was used in place of the S-9 mixture (the—S9samples). […] The 0.7 mL mixture was vortexed and then pre-incubated while shaking for 20 minutes at 37° C. After shaking, 2 mL of molten top agar supplemented with histidine and biotin were added to the 0.7 mL mixture and immediately poured onto a minimal glucose agar plate (volume of base agar was 20 mL). The top agar was allowed 30 minutes to solidify and then the plates were inverted and incubated for 44 hours at 37° C. After incubation the number of revertant colonies on each plate were counted. […] (“n” represents the number of replicates performed for each data point.)

mouse reticulocytes = settings: for bone marrow toxicity and micronucleus formation on dose escalation (in words): increased dose levels in male Balb/c mice; for PCE/RBC (%): tail vein, once per day for four days, blood on day 5
Description: Male Balb/c mice were then injected with 0.1 ml of a compound solution via the tail vein. At least 3 mice were injected per dose level. Saline only was used as a negative control. For a positive control, cyclophosphamide (cycloPP) was administered at a dose of 30 mg/kg. In the experimental group, the injections were repeated once per day for four days. In the positive control group, the sample was administered only once, on day three. On day 5, several microliters of blood were withdrawn from each subject and smeared on a glass slide. Cells were fixed in absolute methanol and stored in a slide rack.
For analysis, cells were stained with acridine orange and visualized under a fluorescence microscope by counting: (i) the number of reticulocytes per 5000 erythrocytes; and (ii) the number of micronucleated reticulocytes per 1000 reticulocytes. Reticulocytes were distinguished by their red fluorescence due to the presence of RNA. Micronuclei were distinguished by their green fluorescence due to the presence of DNA. The percentage of reticulocytes (%PCE) was then calculated. A decrease in the frequency of […] in the percentage of reticulocytes, is an indication of bone marrow toxicity. The percentage of reticulocytes with micronuclei (%PCE with MN) was also calculated. An increase in %PCE with MN is a measure of clastogenicity.
After initial results were determined, the experiment was repeated using increased dose levels, until: (i) Micronucleus formation was seen; or (ii) Bone marrow toxicity was observed; or (iii) The lethal dose was reached; or (iv) A dose of 5 g/kg was administered.

[3] = 16 μM, starting titer approximately 5 logs (Table 10)
[4] = 32 μM, starting titer approximately 5 logs (Table 10)
[5] = 64 μM, starting titer approximately 5 logs (Table 10)
[6] = 16 μM, starting titer approximately 5.4 logs (Table 11)
[7] = 32 μM, starting titer approximately 5.4 logs (Table 11)
[8] = 64 μM, starting titer approximately 5.4 logs (Table 11)

## Cc1oc2c(C)c3oc(=O)cc(C)c3cc2c1CN [AMT, 4′-Aminomethyl-4,5′,8-trimethylpsoralen, reference compound]
[1]; TA1537 + S9, 0.1 μg/plate
  revertant colonies per plate: 2
[1]; TA1537 + S9, 0.5 μg/plate
  revertant colonies per plate: 2
[1]; TA1537 + S9, 1 μg/plate
  revertant colonies per plate: 3
[1]; TA1537 + S9, 5 μg/plate
  revertant colonies per plate: 22
[1]; TA1537 + S9, 10 μg/plate
  revertant colonies per plate: 30
[1]; TA1537 + S9, 50 μg/plate
  revertant colonies per plate: 94
[1]; TA1537 + S9, 100 μg/plate
  revertant colonies per plate: 686 and 500
[1]; TA1537 + S9, 250 μg/plate
  revertant colonies per plate: 3738
[1]; TA1537 − S9, 0.1 μg/plate
  revertant colonies per plate: 0
[1]; TA1537 − S9, 0.5 μg/plate
  revertant colonies per plate: 3
[1]; TA1537 − S9, 1 μg/plate
  revertant colonies per plate: 5
[1]; TA1537 − S9, 5 μg/plate
  revertant colonies per plate: 44
[1]; TA1537 − S9, 10 μg/plate
  revertant colonies per plate: 52
[1]; TA1537 − S9, 50 μg/plate
  revertant colonies per plate: 2688
[1]; TA1537 − S9, 250 μg/plate
  revertant colonies per plate: 434
HIV-1; [3]
  HIV Log Kill: 1.4 log
[2]; TA98 + S9, 0.1 μg/plate
  revertant colonies per plate: 1
[2]; TA98 + S9, 0.5 μg/plate
  revertant colonies per plate: 3
[2]; TA98 + S9, 1 μg/plate
  revertant colonies per plate: 21
[2]; TA98 + S9, 5 μg/plate
  revertant colonies per plate: 232
[2]; TA98 + S9, 10 μg/plate
  revertant colonies per plate: 403
[2]; TA98 + S9, 50 μg/plate
  revertant colonies per plate: 620
[2]; TA98 + S9, 100 μg/plate
  revertant colonies per plate: 745
[2]; TA98 + S9, 250 μg/plate
  revertant colonies per plate: 933
[2]; TA98 − S9, 0.1 μg/plate
  revertant colonies per plate: 3
[2]; TA98 − S9, 0.5 μg/plate
  revertant colonies per plate: 5
[2]; TA98 − S9, 1 μg/plate
  revertant colonies per plate: 5
[2]; TA98 − S9, 5 μg/plate
  revertant colonies per plate: 16
[2]; TA98 − S9, 10 μg/plate
  revertant colonies per plate: 20
[2]; TA98 − S9, 50 μg/plate
  revertant colonies per plate: 69
[2]; TA98 − S9, 100 μg/plate
  revertant colonies per plate: 114
[2]; TA98 − S9, 250 μg/plate
  revertant colonies per plate: 112

## Cc1oc2c(C)c3oc(=O)cc(C)c3cc2c1COCCN [Compound 2, 4′-(4-amino-2-oxa)butyl-4,5′,8-trimethylpsoralen]
[1]; TA1537 + S9, 10 μg/plate
  revertant colonies per plate: 5
[1]; TA1537 + S9, 50 μg/plate
  revertant colonies per plate: 40
[1]; TA1537 + S9, 100 μg/plate
  revertant colonies per plate: 88
[1]; TA1537 + S9, 250 μg/plate
  revertant colonies per plate: 744
[1]; TA1537 + S9, 500 μg/plate
  revertant colonies per plate: 395
[1]; TA1537 − S9, 10 μg/plate
  revertant colonies per plate: 36
[1]; TA1537 − S9, 50 μg/plate
  revertant colonies per plate: 282
[1]; TA1537 − S9, 100 μg/plate
  revertant colonies per plate: 258
[1]; TA1537 − S9, 250 μg/plate
  revertant colonies per plate: 176
[1]; TA1537 − S9, 500 μg/plate
  revertant colonies per plate: 114
HIV-1; [3]
  HIV Log Kill: 1.4 log
HIV-1; [4]
  HIV Log Kill: 3.8 log
HIV-1; [5]
  HIV Log Kill: >4.5 log
HIV-1; cell-free HIV, 64 μM of compound or higher for compounds 2 and 3
  HIV inactivation compared with AMT (in words): significantly more active than AMT
[2]; TA98 + S9, 10 μg/plate
  revertant colonies per plate: 24
[2]; TA98 + S9, 50 μg/plate
  revertant colonies per plate: 35
[2]; TA98 + S9, 100 μg/plate
  revertant colonies per plate: 53
[2]; TA98 + S9, 250 μg/plate
  revertant colonies per plate: 69
[2]; TA98 + S9, 500 μg/plate
  revertant colonies per plate: 63
[2]; TA98 − S9, 10 μg/plate
  revertant colonies per plate: 28
[2]; TA98 − S9, 50 μg/plate
  revertant colonies per plate: 52
[2]; TA98 − S9, 100 μg/plate
  revertant colonies per plate: 39
[2]; TA98 − S9, 250 μg/plate
  revertant colonies per plate: 29
[2]; TA98 − S9, 500 μg/plate
  revertant colonies per plate: 6
Mouse reticulocytes
  bone marrow toxicity and micronucleus formation on dose escalation (in words): the acutely lethal dose was reached before there were any signs of bone marrow toxicity or micronucleus formation

## Cc1oc2c(C)c3oc(=O)cc(C)c3cc2c1CNCCCCN [Compound 6, 4′-(6-amino-2-aza)hexyl-4,5′,8-trimethylpsoralen]
[1]; TA1537 + S9, 100 μg/plate
  revertant colonies per plate: 20 and 35
HIV-1; [3]
  HIV Log Kill: 2.0 log
HIV-1; [6]
  HIV Log Kill: 2.1 log
HIV-1; [4]
  HIV Log Kill: 3.1 log
HIV-1; [7]
  HIV Log Kill: 3.2 log
HIV-1; [5]
  HIV Log Kill: >3.8 log
HIV-1; [8]
  HIV Log Kill: >2.8 log
Mouse reticulocytes; 30 mg/kg
  PCE/RBC (%): 3.61 ± 0.12%
Mouse reticulocytes; 45 mg/kg
  PCE/RBC (%): 3.79 ± 0.41%
Mouse reticulocytes
  bone marrow toxicity and micronucleus formation on dose escalation (in words): the acutely lethal dose was reached before there were any signs of bone marrow toxicity or micronucleus formation

## Cc1cc(=O)oc2c(C)c3oc(COCCN)c(C)c3cc12 [Compound 18, 5′-(4-amino-2-oxa)butyl-4,4′,8-trimethylpsoralen]
[1]; TA1537 + S9, 10 μg/plate
  revertant colonies per plate: 8
[1]; TA1537 + S9, 50 μg/plate
  revertant colonies per plate: 6
[1]; TA1537 + S9, 100 μg/plate
  revertant colonies per plate: 26
[1]; TA1537 + S9, 200 μg/plate
  revertant colonies per plate: 42
[1]; TA1537 − S9, 10 μg/plate
  revertant colonies per plate: 21
[1]; TA1537 − S9, 50 μg/plate
  revertant colonies per plate: 303
[1]; TA1537 − S9, 100 μg/plate
  revertant colonies per plate: 390
[1]; TA1537 − S9, 200 μg/plate
  revertant colonies per plate: 225
HIV-1; [6]
  HIV Log Kill: 1.0 log
HIV-1; [7]
  HIV Log Kill: 1.0 log
HIV-1; [8]
  HIV Log Kill: 3.1 log
[2]; TA98 + S9, 10 μg/plate
  revertant colonies per plate: 8
[2]; TA98 + S9, 50 μg/plate
  revertant colonies per plate: 6
[2]; TA98 + S9, 100 μg/plate
  revertant colonies per plate: 26
[2]; TA98 + S9, 200 μg/plate
  revertant colonies per plate: 42
[2]; TA98 − S9, 10 μg/plate
  revertant colonies per plate: 21
[2]; TA98 − S9, 50 μg/plate
  revertant colonies per plate: 303
[2]; TA98 − S9, 100 μg/plate
  revertant colonies per plate: 390
[2]; TA98 − S9, 200 μg/plate
  revertant colonies per plate: 225
Mouse reticulocytes; 3.75 mg/kg
  PCE/RBC (%): 3.61 ± 1.14%
Mouse reticulocytes; 7.5 mg/kg
  PCE/RBC (%): 3.59 ± 0.33%
Mouse reticulocytes; 20 mg/kg
  PCE/RBC (%): 3.48 ± 0.79%
Mouse reticulocytes
  bone marrow toxicity and micronucleus formation on dose escalation (in words): the acutely lethal dose was reached before there were any signs of bone marrow toxicity or micronucleus formation
